The values that follow come from patent publication US9616051B2, “Drug targets to overcome de novo drug-resistance in multiple myeloma” (H. Lee Moffitt Cancer Center and Research Institute, Inc., priority 2008, dated 2017).

One assay deals with RPMI-8226 (8226). Nature of the assay: CT-Glo cytotoxicity assay, 8226 cells. The assay is classed as cell-based, human. The following applies: Homo sapiens, RPMI-8226. The source says: Compounds identified in Example 1 as the top scoring potential inhibitors for each of the two NES (20 each) were obtained from NCI and structures of these molecules confirmed using NMR and mass spectroscopy analysis, seen in FIGS. 4(A)-(C) and 5(A)-(D). The potential inhibitors were followed up using in vitro model cell cultures. MM cell lines NCI-H929 (H929) and RPMI-8226 (8226) were obtained from and tested for authenticity by the American Type Culture Collection (Manassas, Va.). All cell lines were grown as described previously (Turner, et al., Human topoisomerase IIalpha nuclear export is mediated by two CRM-1-dependent nuclear export signals. J Cell Sci 2004; 117: 3061-71).
(§1) The molecules with the highest docking scores were assayed for IC50 values. Cultures were tested for cytotoxicity using the CellTiter-Glo assay (CT-Glo cytotoxicity assay; Promega, Madison, Wis.), a luminescence-based homogeneous method for determining the number of viable cells in culture based on quantitation of the ATP present, which signals the presence of metabolically active cells (Corsino, et al., A novel class of cyclin-dependent kinase inhibitors identified by molecular docking act through a unique mechanism. J Biol Chem 2009; 284: 29945-55; Homsi, et al., Src activation in melanoma and Src inhibitors as therapeutic agents in melanoma. Melanoma Res 2009; 19: 167-75). All cells were assayed at log-phase growth conditions. Luminescence was measured with a Synergy 4 microplate reader (Bio-Tek Instruments, Inc., Winooski, Vt.). IC50 values were determined using a sigmoidal equilibrium model regression using XLfit version 5.2 (ID Business Solutions Ltd., Surrey, UK) (Corsino, et al., A novel class of cyclin-dependent kinase inhibitors identified by molecular docking act through a unique mechanism. J Biol Chem 2009; 284: 29945-55).

The subject of the next assay is Kg-1a. Nature of the assay: CT-Glo cytotoxicity assay, Kg-1a cells. The assay is classed as cell-based. The following applies: Homo sapiens, 72-h CT-Glo. On the procedure: as §1
Assay [1] has as its target T1, topo IIα (Homo sapiens, UniProt P11388).
T1 construct: effect on the intracellular location of topo IIα in treated MM cells; endogenous in cells; host or cells: human multiple myeloma cells NCI-H929
Put plainly: Nuclear-cytoplasmic fractionation and Western blot for topo IIα. The assay is classed as cell-based. The following applies: high-density RPMI-H929 cells, 25 μM, FIG. 13 legend. How it is done: FIGS. 13(A) and (B) are blots from nuclear (nuc)-cytoplasmic (cyto) fractionation of high-density MM cells (n=2). […] Human myeloma RPMI-H929 cells were treated for 24 hours. Cells were then chemically separated into nuclear and cytoplasmic fractions.
Human myeloma cells were placed at plateau concentrations (4×10^6 cells/ml), and NES inhibitors were added at 25 μM for 20 hours. Cells were collected, washed in PBS, and fractionated by a method adapted from Li et al. (Li Y, Bor Y C, Misawa Y, Xue Y, Rekosh D, Hammarskjold M L. An intron with a constitutive transport element is retained in a Tap messenger RNA. Nature 2006; 443: 234-7). Separated fractions containing nuclei or precipitated cytosol were dissolved in 2% SDS buffer and assayed by SDS-PAGE Western blot analysis. Blots were probed with an anti-topo IIα Kis1 antibody (Millipore Corp.). […] Cells grown at log-phase concentrations were also fractionated. After MM cells were treated with NCI-9138 at 25 μM for 20 hours, CRM1-topo IIα complexes were isolated from cells by immunoprecipitation using a combination of both protein A and protein G magnetic beads according to the manufacturer's protocol (Miltenyi Biotec, Cologne, Germany). Co-immunoprecipitation was performed with 2 μg of anti-CRM1 antibody (Santa Cruz Biotechnology, Inc., Santa Cruz, Calif.). Immunoprecipitation samples were separated by SDS-PAGE, transferred to nitrocellulose membranes, and probed with anti-topo IIα Kis1 antibody (Millipore, Corp., Billerica, Mass.) and anti-mouse horseradish peroxidase secondary antibody.

The target in another assay is T2, CRM1-topo IIα complexes (Homo sapiens, UniProt P11388).
T2 construct: CRM1-topo IIα complexes were isolated from cells by immunoprecipitation; endogenous in cells
T2 sequence (P11388 whole entry, one chain of several): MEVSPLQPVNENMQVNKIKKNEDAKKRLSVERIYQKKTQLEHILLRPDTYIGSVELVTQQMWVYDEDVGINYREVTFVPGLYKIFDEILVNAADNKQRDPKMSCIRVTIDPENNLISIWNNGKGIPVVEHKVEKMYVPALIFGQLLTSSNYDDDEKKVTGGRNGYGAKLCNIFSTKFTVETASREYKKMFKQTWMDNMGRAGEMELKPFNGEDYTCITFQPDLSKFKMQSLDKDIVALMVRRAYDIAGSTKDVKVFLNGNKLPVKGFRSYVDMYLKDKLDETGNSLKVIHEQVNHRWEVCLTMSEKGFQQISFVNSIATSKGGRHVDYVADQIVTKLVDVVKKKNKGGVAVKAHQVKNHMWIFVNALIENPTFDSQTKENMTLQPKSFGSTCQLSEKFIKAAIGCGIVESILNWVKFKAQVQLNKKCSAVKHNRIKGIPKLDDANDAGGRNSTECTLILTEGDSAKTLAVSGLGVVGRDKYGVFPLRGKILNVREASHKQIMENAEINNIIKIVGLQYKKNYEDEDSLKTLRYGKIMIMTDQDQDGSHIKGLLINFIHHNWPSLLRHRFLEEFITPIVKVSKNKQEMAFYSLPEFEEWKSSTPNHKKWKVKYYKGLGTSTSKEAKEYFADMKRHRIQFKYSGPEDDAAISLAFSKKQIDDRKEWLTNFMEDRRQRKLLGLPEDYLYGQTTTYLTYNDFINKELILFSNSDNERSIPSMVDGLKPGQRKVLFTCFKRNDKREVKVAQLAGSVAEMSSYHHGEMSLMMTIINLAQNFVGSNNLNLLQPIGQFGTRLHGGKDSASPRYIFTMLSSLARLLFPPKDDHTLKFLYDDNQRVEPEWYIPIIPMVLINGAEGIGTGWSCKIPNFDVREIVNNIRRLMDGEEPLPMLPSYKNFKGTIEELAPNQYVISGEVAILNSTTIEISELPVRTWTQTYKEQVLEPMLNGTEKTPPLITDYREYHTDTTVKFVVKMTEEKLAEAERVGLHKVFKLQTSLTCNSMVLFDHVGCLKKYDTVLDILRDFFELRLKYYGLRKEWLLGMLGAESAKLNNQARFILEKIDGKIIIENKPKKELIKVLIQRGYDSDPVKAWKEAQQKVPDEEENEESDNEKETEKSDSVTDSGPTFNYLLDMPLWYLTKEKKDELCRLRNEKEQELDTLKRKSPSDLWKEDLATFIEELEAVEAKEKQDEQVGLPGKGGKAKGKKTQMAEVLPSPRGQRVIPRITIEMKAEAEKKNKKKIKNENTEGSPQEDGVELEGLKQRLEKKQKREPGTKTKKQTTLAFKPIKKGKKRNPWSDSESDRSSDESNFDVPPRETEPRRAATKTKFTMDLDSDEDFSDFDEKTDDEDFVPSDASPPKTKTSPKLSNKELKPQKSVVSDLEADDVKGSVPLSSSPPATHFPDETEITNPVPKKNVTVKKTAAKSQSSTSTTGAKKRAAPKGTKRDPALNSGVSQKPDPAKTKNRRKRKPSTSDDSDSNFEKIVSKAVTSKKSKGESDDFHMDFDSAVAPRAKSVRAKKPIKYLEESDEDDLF
Nature of the assay: Co-immunoprecipitation of CRM1 with topo IIα. It is filed as cell-based. How it is done:
Human myeloma cells were placed at plateau concentrations (4×10^6 cells/ml), and NES inhibitors were added at 25 μM for 20 hours. Cells were collected, washed in PBS, and fractionated by a method adapted from Li et al. (Li Y, Bor Y C, Misawa Y, Xue Y, Rekosh D, Hammarskjold M L. An intron with a constitutive transport element is retained in a Tap messenger RNA. Nature 2006; 443: 234-7). Separated fractions containing nuclei or precipitated cytosol were dissolved in 2% SDS buffer and assayed by SDS-PAGE Western blot analysis. Blots were probed with an anti-topo IIα Kis1 antibody (Millipore Corp.). Lead compounds were also tested to determine if nuclear export inhibition was specific to topo IIα protein. Cells grown at log-phase concentrations were also fractionated. […], CRM1-topo IIα complexes were isolated from cells by immunoprecipitation using a combination of both protein A and protein G magnetic beads according to the manufacturer's protocol (Miltenyi Biotec, Cologne, Germany). Co-immunoprecipitation was performed with 2 μg of anti-CRM1 antibody (Santa Cruz Biotechnology, Inc., Santa Cruz, Calif.). Immunoprecipitation samples were separated by SDS-PAGE, transferred to nitrocellulose membranes, and probed with anti-topo IIα Kis1 antibody (Millipore, Corp., Billerica, Mass.) and anti-mouse horseradish peroxidase secondary antibody.

A further assay relates to p53. Put plainly: p53 nuclear export in low-density myeloma cells (nuclear fraction Western blot). It is filed as cell-based, human. As to conditions: H929 at low density (log growth), 25 μM, 20 hours. On the procedure: FIG. 14 is a blot of lead compounds tested to determine if nuclear export inhibition was specific to topo IIα protein. p53 was cycled from the nucleus into the cytoplasm in MM cells cultured at log growth conditions. Cells grown at log-phase concentrations were treated with the lead NES inhibitors (25 μM) or a leptomycin control for 20 hours and chemically fractionated. Nuclei were assayed by SDS-PAGE Western blot analysis for p53 protein (anti-p53 (DO-1), Santa Cruz Biotech, Inc). […] Lamin A/C (anti-lamin A/C, BD Pharmingen) is shown as a loading control.
Cells grown at low concentrations were treated with the lead NES inhibitors (25 μM) or a leptomycin B (5 nM) control for 20 hours and chemically fractionated. Nuclei were assayed by SDS-PAGE Western blot analysis for p53 protein.

Assay [2] addresses T1, topo IIα. Put plainly: Nuclear-cytoplasmic fractionation and Western blot for topo IIα. The assay is classed as cell-based. As to conditions: RPMI-H929 cells, 100 μM, 24 hours, relative to untreated controls. On the technique in general: Immunoblotting shows a protein as a band on a membrane.
For assay [3], the system named is high-density MM cells (H929). Nature of the assay: Cleaved caspase 3 apoptosis assay, sensitization to doxorubicin.

Read-outs that look alike come from different tables or passages of the source.

T1 sequence (P11388 whole entry): as the sequence (P11388 whole entry, one chain of several) above

Usually IC50 stands for the concentration needed to halve the response being measured. In the case of `O=C1c2ccccc2C(=O)C1C(=O)C(c1ccccc1)c1ccccc1` [NCI-9138, 2-(diphenylacetyl)-1H-indene-1,3(2H)-dione], the IC50 in the assay on RPMI-8226 (8226) (8226 cells, 72-h CT-Glo, log-phase (low-density), average ± SD, read-out: IC50) came out at 12.7 ± 4.5 µM; with RPMI-8226 (8226) (high-density cells, single agent (data not shown), read-out: IC50, viability of high-density cells), 9.4 µM; with Kg-1a it was 21.3 µM. Further, the “Export of topo IIα, nuclear-cytoplasmic fractionation” value at topo IIα [1] was “strongly blocked export of topo IIα”. The “Co-immunoprecipitation of CRM1 with topo IIα” value on CRM1-topo IIα complexes (50 μM for 20 hours (FIG. 12 legend)) was “blocked”. For the same compound, at CRM1-topo IIα complexes (MM cells, 25 μM for 20 hours), the “Binding of topo IIα to CRM1 (co-immunoprecipitation)” value is “prevented from binding to CRM1”. Moreover, in the assay on p53, the “Nuclear export of p53” value is “did not prevent export of p53”. Also, the “Cytoplasmic level / nuclear localization of topo IIα, fractionation Western blot” value on topo IIα [2] is reported as “reduced cytoplasmic levels of topo IIα equivalent to that produced by the CRM-1 inhibitor ratjadone C”. Also, the “Sensitization of high-density MM cells to doxorubicin / synergism” value in assay [3] (25 μM NES inhibitor, doxorubicin 2 μM) was “synergized with the topo II inhibitor doxorubicin”. In assay [3] (dox/drug (dox 2 μM) divided by dox alone), the “Fold-Increased sensitization to dox” value worked out at 4.13 ± 1.83 fold.
